Source: patent publication US8916599B2, “1H-benz imidazole-5-carboxamides as anti-inflammatory agents” (Orexo AB, priority 2008, dated 2014)

Biological target: T1, recombinant human mPGES-1 (Homo sapiens, UniProt O14684)
T1 construct: made in house; host or cells: Rosetta E. coli (microsomal/membrane fraction)
T1 sequence (O14684 1-152): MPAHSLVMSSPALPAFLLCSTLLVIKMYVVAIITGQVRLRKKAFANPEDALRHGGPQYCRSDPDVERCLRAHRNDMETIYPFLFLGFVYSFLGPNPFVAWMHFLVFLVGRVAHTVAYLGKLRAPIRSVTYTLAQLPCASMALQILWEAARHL
Assay: mPGES-1 inhibition test (microsomes, PGH2 substrate, HTRF detection of PGE2)
Type: biochemical
Conditions: inhibition of mPGES-1 at 10 μM
Outline: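 Bacterial microsomes with GSH-containing phosphate buffer at pH 7.4 are exposed to test compounds for 25 minutes before a one-minute PGH2 conversion. The quenched, 750-fold diluted mixture is analysed by time-resolved FRET for PGE2.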

Row | inhibition at 10 µM [%] | SMILES
1 | 67 | O=C(NCCc1ccncc1)c1ccc2[nH]c(Nc3c(Cl)cccc3Cl)nc2c1 [Example 233, 2-(2,6-Dichloro-phenylamino)-1H-benzimidazole-5-carboxylic acid (2-pyridin-4-yl-ethyl)-amide]
2 | 77 | O=C(NCC1CCCO1)c1ccc2[nH]c(Nc3c(Cl)cccc3Cl)nc2c1 (stereo not drawn) [Example 234, 2-(2,6-Dichloro-phenylamino)-1H-benzimidazole-5-carboxylic acid (tetrahydro-furan-2-ylmethyl)-amide]
3 | 79 | O=C(NCc1ccccn1)c1ccc2[nH]c(Nc3c(Cl)cccc3Cl)nc2c1 [Example 235, 2-(2,6-Dichloro-phenylamino)-1H-benzimidazole-5-carboxylic acid (pyridin-2-ylmethyl)-amide]
4 | 83 | O=C(NCc1ccncc1)c1ccc2[nH]c(Nc3c(Cl)cccc3Cl)nc2c1 [Example 236, 2-(2,6-Dichloro-phenylamino)-1H-benzimidazole-5-carboxylic acid (pyridin-4-ylmethyl)-amide]
5 | 87 | Cn1c(Nc2c(Cl)cccc2Cl)nc2cc(C(=O)NC3CCCCC3O)ccc21 (stereo not drawn) [Example 237, 2-(2,6-Dichloro-phenylamino)-1-methyl-1H-benzimidazole-5-carboxylic acid (2-hydroxy-cyclohexyl)-amide]
6 | 100 | Cn1c(Nc2c(Cl)cccc2Cl)nc2cc(C(=O)NC3CCCCCC3)ccc21 [Example 238, 2-(2,6-Dichloro-phenylamino)-1-methyl-1H-benzimidazole-5-carboxylic acid cycloheptylamide]
7 | 96 | CC1CCC(NC(=O)c2ccc3c(c2)nc(Nc2c(Cl)cccc2Cl)n3C)CC1 (stereo not drawn) [Example 239, 2-(2,6-Dichloro-phenylamino)-1-methyl-1H-benzimidazole-5-carboxylic acid (4-methyl-cyclohexyl)-amide]
8 | 80 | CO[C@H]1CC[C@H](NC(=O)c2ccc3c(c2)nc(Nc2c(Cl)cccc2Cl)n3C)CC1 [Example 240, 2-(2,6-Dichloro-phenylamino)-1-methyl-1H-benzimidazole-5-carboxylic acid (trans-4-methoxy-cyclohexyl)-amide]
9 | 100 | CC1CC(NC(=O)c2ccc3c(c2)nc(Nc2c(Cl)cccc2Cl)n3C)CC(C)(C)C1 (stereo not drawn) [Example 241, 2-(2,6-Dichloro-phenylamino)-1-methyl-1H-benzimidazole-5-carboxylic acid (3,3,5-trimethyl-cyclohexyl)-amide]
10 | 70 | CC(NC(=O)c1ccc2c(c1)nc(Nc1c(Cl)cccc1Cl)n2C)c1ccccn1 (stereo not drawn) [Example 242]
11 | 93 | Cn1c(Nc2c(Cl)cccc2Cl)nc2cc(C(=O)NCC3CCCC3)ccc21 [Example 243, 2-(2,6-Dichloro-phenylamino)-1-methyl-1H-benzimidazole-5-carboxylic acid cyclopentylmethyl-amide]
12 | 96 | Cn1c(Nc2c(Cl)cccc2Cl)nc2cc(C(=O)NCc3ncccc3C(F)(F)F)ccc21 [Example 244, 2-(2,6-Dichloro-phenylamino)-1-methyl-1H-benzimidazole-5-carboxylic acid (3-trifluoromethyl-pyridin-2-ylmethyl)-amide]
13 | 97 | Cn1c(Nc2c(Cl)cccc2Cl)nc2cc(C(=O)NCc3cc(C(F)(F)F)ccn3)ccc21 [Example 245, 2-(2,6-Dichloro-phenylamino)-1-methyl-1H-benzimidazole-5-carboxylic acid (4-trifluoromethyl-pyridin-2-ylmethyl)-amide]
14 | 100 | Cn1c(Nc2c(Cl)cccc2Cl)nc2cc(C(=O)NCc3ccc(C(F)(F)F)cn3)ccc21 [Example 246, 2-(2,6-Dichloro-phenylamino)-1-methyl-1H-benzimidazole-5-carboxylic acid (5-trifluoromethyl-pyridin-2-ylmethyl)-amide]
15 | 92 | Cn1c(Nc2c(Cl)cccc2Cl)nc2cc(C(=O)NCc3cccc(C(F)(F)F)n3)ccc21 [Example 247, 2-(2,6-Dichloro-phenylamino)-1-methyl-1H-benzimidazole-5-carboxylic acid (6-trifluoromethyl-pyridin-2-ylmethyl)-amide]
16 | 73 | Cn1c(Nc2c(Cl)cccc2Cl)nc2cc(C(=O)Nc3cccc(S(C)(=O)=O)c3)ccc21 [Example 248, 2-(2,6-Dichloro-phenylamino)-1-methyl-1H-benzimidazole-5-carboxylic acid (3-methanesulfonyl-phenyl)-amide]
17 | 96 | Cn1c(Nc2c(Cl)cccc2Cl)nc2cc(C(=O)NC3CCC(F)(F)CC3)ccc21 [Example 249, 2-(2,6-Dichloro-phenylamino)-1-methyl-1H-benzimidazole-5-carboxylic acid (4,4-difluoro-cyclohexyl)-amide]

Row | inhibition at 10 µM [%] | SMILES
18 | 73 | Cn1c(Nc2c(Cl)cccc2Cl)nc2cc(C(=O)Nc3ccc(S(C)(=O)=O)cc3)ccc21 [Example 250, 2-(2,6-Dichloro-phenylamino)-1-methyl-1H-benzimidazole-5-carboxylic acid (4-methanesulfonyl-phenyl)-amide]
19 | 71 | Cn1c(Nc2c(Cl)cccc2Cl)nc2cc(C(=O)NCC3CCCOC3)ccc21 (stereo not drawn) [Example 251, 2-(2,6-Dichloro-phenylamino)-1-methyl-1H-benzimidazole-5-carboxylic acid (tetrahydro-pyran-3-ylmethyl)-amide]
20 | 68 | Cn1c(Nc2c(Cl)cccc2Cl)nc2cc(C(=O)NC3CCOCC3)ccc21 [Example 252, 2-(2,6-Dichloro-phenylamino)-1-methyl-1H-benzimidazole-5-carboxylic acid (tetrahydro-pyran-4-yl)-amide]
21 | 100 | Cn1c(Nc2c(Cl)cccc2Cl)nc2cc(C(=O)NC3(C)CCCCC3)ccc21 [Example 253, 2-(2,6-Dichloro-phenylamino)-1-methyl-1H-benzimidazole-5-carboxylic acid (1-methyl-cyclohexyl)-amide]
22 | 100 | Cn1c(Nc2c(Cl)cccc2Cl)nc2cc(C(=O)NC3CCCCC3C(F)(F)F)ccc21 (stereo not drawn) [Example 254, 2-(2,6-Dichloro-phenylamino)-1-methyl-1H-benzimidazole-5-carboxylic acid (2-trifluoromethyl-cyclohexyl)-amide]
23 | 100 | Cn1c(Nc2c(Cl)cccc2Cl)nc2cc(C(=O)NC3CCCC(C(F)(F)F)C3)ccc21 (stereo not drawn) [Example 255, 2-(2,6-Dichloro-phenylamino)-1-methyl-1H-benzimidazole-5-carboxylic acid (3-trifluoromethyl-cyclohexyl)-amide]
24 | 100 | Cn1c(Nc2c(Cl)cccc2Cl)nc2cc(C(=O)NC3CCC(C(F)(F)F)CC3)ccc21 (stereo not drawn) [Example 256, 2-(2,6-Dichloro-phenylamino)-1-methyl-1H-benzimidazole-5-carboxylic acid (4-trifluoromethyl-cyclohexyl)-amide]
25 | 100 | Cn1c(Nc2c(Cl)cccc2Cl)nc2cc(C(=O)NC3(C#N)CCCCC3)ccc21 [Example 257, 2-(2,6-Dichloro-phenylamino)-1-methyl-1H-benzimidazole-5-carboxylic acid (1-cyano-cyclohexyl)-amide]
26 | 83 | Cn1c(Nc2c(Cl)cccc2Cl)nc2cc(C(=O)NCCc3ccccn3)ccc21 [Example 258, 2-(2,6-Dichloro-phenylamino)-1-methyl-1H-benzimidazole-5-carboxylic acid (2-pyridin-2-yl-ethyl)-amide]
27 | 89 | Cn1c(Nc2c(Cl)cccc2Cl)nc2cc(C(=O)NCCc3cccnc3)ccc21 [Example 259, 2-(2,6-Dichloro-phenylamino)-1-methyl-1H-benzimidazole-5-carboxylic acid (2-pyridin-3-yl-ethyl)-amide]
28 | 84 | Cn1c(Nc2c(Cl)cccc2Cl)nc2cc(C(=O)NCCc3ccncc3)ccc21 [Example 260, 2-(2,6-Dichloro-phenylamino)-1-methyl-1H-benzimidazole-5-carboxylic acid (2-pyridin-4-yl-ethyl)-amide]
29 | 92 | Cn1c(Nc2c(Cl)cccc2Cl)nc2cc(C(=O)NCC3CCCO3)ccc21 (stereo not drawn) [Example 261, 2-(2,6-Dichloro-phenylamino)-1-methyl-1H-benzimidazole-5-carboxylic acid (tetrahydro-furan-2-ylmethyl)-amide]
30 | 61 | Cn1c(Nc2c(Cl)cccc2Cl)nc2cc(C(=O)NCc3ccncc3)ccc21 [Example 262, 2-(2,6-Dichloro-phenylamino)-1-methyl-1H-benzimidazole-5-carboxylic acid (2-pyridin-4-yl-methyl)-amide]
31 | 93 | O=C(Nc1cc(Cl)ccn1)c1ccc2c(c1)nc(Nc1c(Cl)cccc1Cl)n2CCCO [Example 263, 2-(2,6-Dichloro-phenylamino)-1-(3-hydroxy-propyl)-1H-benzimidazole-5-carboxylic acid (4-chloro-pyridin-2-yl)-amide]
32 | 90 | O=C(Nc1cc(Cl)ccn1)c1ccc2c(c1)nc(Nc1c(Cl)cccc1Cl)n2CCC(=O)N1CCOCC1 [Example 264, 2-(2,6-Dichloro-phenylamino)-1-(3-morpholin-4-yl-3-oxo-propyl)-1H-benzimidazole-5-carboxylic acid (4-chloro-pyridin-2-yl)-amide]
33 | 97 | O=C(O)CCn1c(Nc2c(Cl)cccc2Cl)nc2cc(C(=O)Nc3cc(Cl)ccn3)ccc21 [Example 265, 2-(2,6-Dichloro-phenylamino)-1-(propionic acid)-1H-benzimidazole-5-carboxylic acid (4-chloro-pyridin-2-yl)-amide]
